These are literature values, as cited in patent publication US8592424B2, “Topical regional neuro-affective therapy” (Afgin Pharma LLC, priority 2008, dated 2013).

Structures can show the parent of a compound that is named as a salt.

Data set [1] concerns patients with advanced Parkinson's disease, "off periods".
In data set [2] the test system is alpha-adrenergic receptors. The note with it: in vitro tests; some alpha-adrenergic receptors.
Another data set has as its system serotonin receptors. The note with it: in vitro tests.
Data set [3] relates to patients, some with impotence with erectile dysfunction. To be noted: apomorphine injections, observed and reported.
The next data set addresses D4 dopamine receptor (Homo sapiens, UniProt P21917). The note with it: in vitro tests.
In a further data set the target is D2 dopamine receptor (Homo sapiens, UniProt P14416). The note with it: in vitro tests.
Chain of D2 dopamine receptor (P14416 whole entry): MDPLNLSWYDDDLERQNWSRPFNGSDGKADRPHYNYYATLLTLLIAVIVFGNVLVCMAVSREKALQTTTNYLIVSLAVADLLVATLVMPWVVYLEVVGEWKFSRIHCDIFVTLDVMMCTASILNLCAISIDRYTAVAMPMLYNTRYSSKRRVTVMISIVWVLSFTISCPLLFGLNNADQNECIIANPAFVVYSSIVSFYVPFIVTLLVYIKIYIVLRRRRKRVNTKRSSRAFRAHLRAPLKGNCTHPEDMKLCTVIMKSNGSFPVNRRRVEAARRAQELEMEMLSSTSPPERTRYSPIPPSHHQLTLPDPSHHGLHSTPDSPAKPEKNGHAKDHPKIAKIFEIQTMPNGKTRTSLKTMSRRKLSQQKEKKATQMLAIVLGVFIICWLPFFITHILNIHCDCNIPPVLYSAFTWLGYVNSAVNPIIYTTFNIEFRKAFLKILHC
The target in a further data set is D3 dopamine receptor (Homo sapiens, UniProt P35462). To be noted: in vitro tests.
Chain of D3 dopamine receptor (P35462 whole entry): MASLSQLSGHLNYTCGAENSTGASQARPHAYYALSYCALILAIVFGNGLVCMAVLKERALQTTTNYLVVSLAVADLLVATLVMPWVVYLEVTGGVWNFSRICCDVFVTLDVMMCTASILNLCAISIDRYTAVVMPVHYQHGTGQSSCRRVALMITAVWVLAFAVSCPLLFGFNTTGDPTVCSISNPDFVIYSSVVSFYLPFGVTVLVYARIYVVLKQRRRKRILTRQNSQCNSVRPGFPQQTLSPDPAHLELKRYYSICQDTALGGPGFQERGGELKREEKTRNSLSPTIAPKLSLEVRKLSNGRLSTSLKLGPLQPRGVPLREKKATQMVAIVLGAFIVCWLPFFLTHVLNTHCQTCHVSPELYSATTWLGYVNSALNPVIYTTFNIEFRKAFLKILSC
Another data set deals with dopamine D1 receptor (Homo sapiens, UniProt P21728). The note with it: in vitro tests.
Chain of dopamine D1 receptor (P21728 whole entry): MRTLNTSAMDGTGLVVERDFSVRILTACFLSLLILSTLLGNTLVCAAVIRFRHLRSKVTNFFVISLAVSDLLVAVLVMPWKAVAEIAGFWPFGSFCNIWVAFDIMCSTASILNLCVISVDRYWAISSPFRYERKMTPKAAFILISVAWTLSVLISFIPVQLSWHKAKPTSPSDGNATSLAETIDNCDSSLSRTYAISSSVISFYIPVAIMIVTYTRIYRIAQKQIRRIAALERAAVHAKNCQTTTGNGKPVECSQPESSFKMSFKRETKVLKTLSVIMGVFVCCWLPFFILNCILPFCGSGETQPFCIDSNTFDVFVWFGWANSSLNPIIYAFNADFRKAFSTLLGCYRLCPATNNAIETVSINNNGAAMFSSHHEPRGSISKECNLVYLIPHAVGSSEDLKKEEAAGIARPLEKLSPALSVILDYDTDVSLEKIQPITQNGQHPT
Setting [4] is: reported clinical trials, despite using Tigan.

Chain of D4 dopamine receptor (P21917 whole entry): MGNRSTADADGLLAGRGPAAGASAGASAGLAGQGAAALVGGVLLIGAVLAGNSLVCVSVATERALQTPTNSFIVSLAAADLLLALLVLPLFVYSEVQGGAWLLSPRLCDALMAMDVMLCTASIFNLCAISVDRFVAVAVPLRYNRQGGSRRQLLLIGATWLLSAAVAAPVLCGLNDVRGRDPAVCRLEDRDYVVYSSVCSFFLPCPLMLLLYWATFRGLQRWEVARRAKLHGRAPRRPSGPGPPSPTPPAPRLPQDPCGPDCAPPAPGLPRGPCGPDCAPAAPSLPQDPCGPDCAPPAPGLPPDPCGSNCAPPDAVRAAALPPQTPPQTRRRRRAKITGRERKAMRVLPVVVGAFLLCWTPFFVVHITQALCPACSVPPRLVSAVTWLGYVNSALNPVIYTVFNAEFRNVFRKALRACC

As for `CN1CCc2cccc3c2[C@H]1Cc1ccc(O)c(O)c1-3` [Apomorphine hydrochloride], the “other commonly reported adverse events in clinical trials” value in data set [1] (oral and injectible forms) is “dizziness, yawning, somnolence, rhinorrhea, sweating, flushing, pallor, hallucinations, edema, and chest pain”. Moreover, the patients experiencing nausea in data set [1] (setting [4]) is 31%. For the same compound, the patients experiencing vomiting in data set [1] (setting [4]) was 11%. For the same compound, the “time to take effect” value in data set [1] (subcutaneous injection, reported) was 10 to 15 min. The affinity result was “moderate” in data set [2]; “low” in the data set on serotonin receptors; “high” at D4 dopamine receptor; “moderate” at D2 dopamine receptor; “moderate” on D3 dopamine receptor; “low” at dopamine D1 receptor. For the same compound, under “at 80 degrees Celsius”, the solubility in water entry is recorded as “soluble”. In addition, the “effect on sexual function” value in [3] is listed as “improvement in sexual function”.

As for `c1cnc2cc3c(cc2n1)[C@@H]1CNC[C@H]3C1` [varenicline], the water solubility entry is on record as “high”.
